Earlier results as cited in US20230404944A1, “CANNABINOID ENCAPSULATION TECHNOLOGY” (ZELIRA THERAPEUTICS OPERATIONS PTY LTD, priority 2020, published 2023).

C=C(C)[C@@H]1CCC(C)=C[C@H]1c1c(O)cc(CCCCC)cc1O [CBD, cannabidiol]
Oral bioavailability in plasma (plasma): approximately 6% | Oral bioavailability in tissues (tissues): ~1%
